# Data published in PMC9862597, “Anti-Colorectal Cancer Effects of a Novel Camptothecin Derivative PCC0208037 In Vitro and In Vivo” (Pharmaceuticals, 2022).
# Experiments:
# [1] = Pharmacokinetic study, single intravenous dose; conditions: for AUCinf / AUClast: n = 3
# Experimental: Blood samples were collected at 0.083 h, 0.25 h, 0.5 h, 1 h, 2 h, 4 h, 8 h, and 12 h after administration. Plasma was prepared after centrifugation at 6000× g for 5 min and then stored at −20 °C for further analysis.
# [2] = tested on: LS180 xenograft tumor; assay: Subcutaneous LS180 xenograft model; assay type: in vivo, nude mice; conditions: PCC0208037 5, 10, 20 mg/kg; CPT-11 10 mg/kg; i.v. once every 3 days
# Experimental: To establish xenograft tumor models, RPMI 1640 and Matrigel were mixed at a 1:1 ratio. Colorectal cancer cells (LS180: 5 × 10^6 cells) were added to 0.1 mL of the mixture, and male nude mice were subcutaneously injected with colorectal cancer cells on the right side. […] Tumor volume and animal weight were measured every 3 days and continued until the end of the experiments. All mice were euthanized by cervical dislocation at the end of the experiment, and the xenograft tumors were removed and weighed.
# Figure 8 Anti-tumor effect of PCC0208037 in the LS180 xenograft tumor model. (A) Representative tumors removed after the last treatment in each treatment group. (B) Body weight gain curves of mice bearing an LS180 xenograft tumor. (C) Tumor weights in the different groups of mice after 15 d of treatment.
# [3] = tested on: LS180 cells; assay: MTT cell viability assay, LS180; assay type: cell-based; conditions: Homo sapiens; LS180, MTT, 72 h, n = 3; read-out: IC50
# Experimental: (§1) Cell viability was assessed using the MTT assay, as previously reported. Briefly, colorectal cancer cells (LS180, HCT116, CT-26, and HT-29 cells) were plated onto 96-well plates at 3000 cells per well and incubated overnight. […] Control cells were treated with DMSO at a final concentration of 0.1%. Cells were cultured with the compounds or medium for 72 h. The cells were then treated with MTT. The medium was then decanted, and DMSO was added and shaken until the color reaction was complete. The […] were read using a Molecular Devices SpectraMax M5 (San Jose, CA, USA) at OD570 nm. The half maximal inhibitory concentration (IC50) was calculated.
# [4] = tested on: HCT116 cells; assay: MTT cell viability assay, HCT116; assay type: cell-based; conditions: Homo sapiens, HCT-116; HCT116, MTT, 72 h, n = 3; read-out: IC50
# Experimental: as §1
# [5] = PCC0208037- and CPT-11-induced toxicity in mice; conditions: 50 mg/kg/day i.p. for four days
# [6] = tested on: HT-29 cells; assay: MTT cell viability assay, HT-29; assay type: cell-based; conditions: Homo sapiens; HT-29, MTT, 72 h, n = 3
# Experimental: as §1
# [7] = tested on: CT-26 cells; assay: MTT cell viability assay, CT-26; assay type: cell-based; conditions: Mus musculus, CT26; CT-26, MTT, 72 h, n = 3
# Experimental: as §1
# [8] = target: T1, recombinant Topo I (Homo sapiens, UniProt P11387); assay: Topoisomerase I activity assay (DNA relaxation); assay type: biochemical; conditions: PCC0208037 100 and 10 nmol/L, SN-38 100 nmol/L, CPT-11 100 nmol/L; 30 min, 37 °C
# T1 construct: purchased TopoGEN, Inc (Buena Vista, CO, USA) TG1018
# T1 sequence (P11387 1-765): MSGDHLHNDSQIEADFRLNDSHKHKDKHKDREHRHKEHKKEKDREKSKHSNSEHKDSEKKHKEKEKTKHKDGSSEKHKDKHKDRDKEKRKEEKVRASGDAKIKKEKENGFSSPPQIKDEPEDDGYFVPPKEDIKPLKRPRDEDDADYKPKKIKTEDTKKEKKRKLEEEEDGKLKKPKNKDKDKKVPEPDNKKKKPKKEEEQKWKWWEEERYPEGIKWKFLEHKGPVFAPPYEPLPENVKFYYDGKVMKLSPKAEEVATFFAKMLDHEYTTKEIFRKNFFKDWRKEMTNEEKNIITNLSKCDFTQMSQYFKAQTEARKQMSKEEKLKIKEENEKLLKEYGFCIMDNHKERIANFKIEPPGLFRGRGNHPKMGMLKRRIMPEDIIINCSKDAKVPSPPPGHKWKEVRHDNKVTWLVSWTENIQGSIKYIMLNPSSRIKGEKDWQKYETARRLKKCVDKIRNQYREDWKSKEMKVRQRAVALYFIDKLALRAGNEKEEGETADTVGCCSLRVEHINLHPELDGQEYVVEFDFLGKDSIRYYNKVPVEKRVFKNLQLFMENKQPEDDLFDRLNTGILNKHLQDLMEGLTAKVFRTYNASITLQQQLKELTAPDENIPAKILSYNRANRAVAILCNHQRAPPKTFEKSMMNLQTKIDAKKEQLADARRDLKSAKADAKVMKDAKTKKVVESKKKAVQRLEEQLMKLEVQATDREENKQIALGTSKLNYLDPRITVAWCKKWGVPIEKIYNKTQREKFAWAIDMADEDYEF
# Experimental: To determine whether PCC0208037 inhibited Topo I activity, a DNA relaxation assay was conducted. In this assay, supercoiled plasmid DNA was relaxed and nicked by recombinant Topo I, while no nicked DNA would be found when the Topo I enzyme was inhibited.
# A Topoisomerase I Drug Screening Kit was used to detect the inhibitory activity of PCC0208037 against Topo I in the cell-free system. 1 IU Topo I and 250 ng of supercoiled plasmid DNA were pre-incubated with DMSO, PCC0208037 (100 nmol/L and 10 nmol/L), SN-38(100 nmol/L), or CPT (100 nmol/L) in a reaction buffer with a final volume of 20 μL and incubated for 30 min at 37 °C; then, the reaction was stopped by the addition of 2 ul of 10% SDS. Then, proteinase K was added to 50 ug/mL, incubated for 15 min at 37 °C, and 0.1 vol. of a loading buffer (0.25% bromophenol blue, 50% glycerol) was added. The supercoiled, relaxed, or nicked DNA was separated by 1% agarose gel in a 1 TAE (Tris-Acetate-EDTA) buffer. Ethidium bromide-stained agarose gel was photographed using Gel Doc XR.
# Figure 4 Inhibition of Topo I activity by PCC0208037. […] Plasmid DNA was separated by an agarose gel and stained with ethidium bromide.
# [9] = BALB/c, mouse, plasma, iv, 10 mg/kg
# [10] = CPT-11 in plasma, 10 mg/kg CPT-11 i.v.
# [11] = metabolite SN-38 in plasma after 10 mg/kg CPT-11 i.v.
# [12] = metabolite SN-38 in plasma after 10.65 mg/kg PCC0208037 i.v.
"AUCinf [1, 11] [H * ng/mL]","AUClast [1, 11] [H * ng/mL]","AUCinf [1, 12] [H * ng/mL]","AUClast [1, 12] [H * ng/mL]",inhibition of Topo I activity (supercoiled plasmid DNA relaxation) [8],Compound,"Cmax [1, 9] [ng/mL]","Tmax [1, 9] [h]","AUCinf [1, 10] [H * ng/mL]","AUClast [1, 10] [H * ng/mL]",effect on body weight of tumor-bearing mice [2],IC50 [3] [µM],IC50 [4] [µM],colorectal tissue histomorphological examination (H&E) ([5]; colon after 7 days),"diarrhea score ([5]; later stage of study, p < 0.05 on 7th day)",mortality ([5]; seven-day observation),recovery of body weight and food intake decrease ([5]; seven-day observation),IC50 [6] [µM],IC50 [7] [µM]
–,–,–,–,–,"CCc1c2c(nc3ccc(OC(=O)N4CCC(N5CCCCC5)CC4)cc13)-c1cc3c(c(=O)n1C2)COC(=O)[C@]3(O)CC [CPT-11, Irinotecan]",481 ± 112,3.24 ± 2.19,393.1 ± 64.4,360.5 ±52.9,significant reduction in body weight,3.17 ± 0.58,> 50,extensive colorectal tissue damage,higher in the CPT-11-treated mice than in the PCC0208037-treated mice,No animal died,no apparent trend of recovery was observed,> 50,> 50
431.5 ± 62.5,394.6 ± 46.32,919.7 ± 176.1,905.5 ± 173.7,Topo I activity was inhibited,CCc1c2c(nc3ccc(O)cc13)-c1cc3c(c(=O)n1C2)COC(=O)[C@]3(O)CC [SN-38],–,–,–,–,–,0.12 ± 0.01,3.58 ± 0.21,–,–,–,–,0.35 ± 0.02,0.44 ± 0.66
